Measurements as given in article PMC9323733, “Efficacy of Vafidemstat in Experimental Autoimmune Encephalomyelitis Highlights the KDM1A/RCOR1/HDAC Epigenetic Axis in Multiple Sclerosis” (Pharmaceutics, 2022).
Entries after “also recorded” stand apart in the source; their conditions may differ.

How the values were obtained:
[1] = system: spinal cord and brain of EAE mice; experiment: qRT-PCR validation of microarray biomarkers, spinal cord and brain of EAE mice; format: in vivo, mouse
Procedure: We evaluated differences in gene expression induced by the treatment using real-time PCR and by microarray hybridization analysis. First, total RNA was isolated from brain and spinal cord segments from EAE mice using Qiazol™ and the RNeasy MiniKit™ extraction kit (Qiagen). Evaluation of RNA quality was performed with the Agilent 2100 bioanalyzer and NanoDrop™ ND-1000 (Thermo Scientific, Dartford, Kent, UK). After DNAse I treatment, RNA (1 µg/sample) was reverse transcribed using RevertAid First strand cDNA Synthesis kit (Fermentas) and random hexamer primers. For evaluating the expression of the inflammatory markers TNFα, IL-1β, IP10, IL-4, and CCL5, real time PCR was performed by using iQ SYBR Green Supermix (Bio-Rad, Feldkirchen, Germany) according to manufacturer’s instructions in a BIORAD CFX96 thermal cycler. Primer sequences and PCR conditions are indicated in Supplementary Materials Table S3. […]
For the gene expression studies, data from microarray assays were normalized by modified nonlinear Q-splines normalization method and Log2(Sample/Vehicle) values calculated without background correction (which permits robust selection of differentially expressed genes yet may lead to sub-estimation of the magnitude of change for genes expressed near the detection limit). Differential expression was assessed with the proprietary Polyphemus software using robust statistics on the average technical replicates (3 replicates/gene oligo datapoint) after removing eventual outlier points (caused by dust or array imperfections). […] The p values were calculated after outlier elimination based on the absolute value of the regularized t-statistics, which uses a Bayesian framework to derive the algorithm, using internal replicated controls to assess the minimum technical variability of the process. Correlation between gene expression changes induced by different treatments was analysed by calculating the Pearson correlation coefficient r using the Log2(Treatment/Veh) values for all genes expressed above background level (n). […]

circulating lymphocytes = experiment: Toxicity studies, overall statements (circulating lymphocytes, gastrointestinal toxicity); format: in vivo, rat and dog; conditions: for total number of circulating lymphocytes: at doses effective in EAE and TMEV models
Excerpt: T r eat m e nt N Ly m p h o c y te s Equivalent m ou se d o se
( mg /k g p. o. ga va g e) (109/ L ) ( mg /k g p.o ga va ge)
6 m ont h s W i sta r r at s
9 m ont h s Be ag le d og s
Eff ec t of t r ea t me nt wi t h O RY-2 00 1 a d mi ni st e r e d by or al ga va ge o n l y m ph oc yt e s ob se r ve d i n G LP
t ox i c ol ogi c a l st udi e s i n r at a nd do g. A ni ma l s we r e t re a t e d or al l y (fi ve c o ns e c ut i ve da ys/ we e k) by ga va ge
28 da ys or 6 mo nt hs ( ra t s) a nd 28 da ys or 9 mo nt hs (dogs). Data re prese nt de me a n ± S D. T he e q ui va l e n t
dos e i n m o use i s i n di c at e d. 1-wa y A N OV A a n d D u n ne t t’ s M ul ti pl e C o m pa ri so n t e st wa s use d.

[2] = system: patients and healthy volunteers; conditions: cited from earlier work

Nc1nnc(CN[C@@H]2C[C@H]2c2ccc(OCc3ccccc3)cc2)o1 [ORY-2001]
Ttr upregulation in spinal cord, check by qRT-PCR ([1]; increased pooled value came from a single outlier sample): discarded as a biomarker
expression of Saa3, Aif1 and Gbp2 (qRT-PCR) ([1]; spinal cord and brain, effector phase): downregulated the inflammatory biomarkers Saa3, Aif1 and Gbp2
expression of Ccl5, Ip10 and Tnf-alpha (qRT-PCR) ([1]; spinal cord and brain, sub-chronic period): downregulated
total number of circulating lymphocytes (circulating lymphocytes): did not significantly impact the total number of circulating lymphocytes
total number of circulating lymphocytes (circulating lymphocytes; listed as vafidemstat): do not significantly impact the total number of circulating lymphocytes; also recorded: do not significantly affect hematology or lymphocyte counts
gastrointestinal toxicity (circulating lymphocytes; at effective doses, listed as vafidemstat): did not induce any signs of gastrointestinal toxicity; also recorded: without signs of gastro-intestinal toxicity
YKL40 levels in patients ([2]; AD Phase II trial ETHERAL, relative to placebo): significantly reduced relative to placebo
aggression ([2]; BPD, ADHD, ASD and moderate-severe AD, Phase IIa REIMAGINE and REIMAGINE-AD): significantly reduced aggression
safety in humans ([2]; more than 300 subjects in multiple studies): has been shown to be safe
safety and tolerability, long-term treatment ([2]; relapse-remitting and secondary progressive MS, SATEEN): safe and well tolerated
